Drawing on ChEMBL document CHEMBL1201862, “PubChem BioAssay data set” (2004), this text covers IC50 for four compounds.

Activity calls are given as the source filed them. Rule as the data show it, for most assays here: actives have a measured IC50 and inactives only a lower limit.

For test [1], the target named is T1, 1-phosphatidylinositol 4,5-bisphosphate phosphodiesterase beta-3 (Homo sapiens, UniProt Q01970).
T1 sequence (Q01970 whole entry): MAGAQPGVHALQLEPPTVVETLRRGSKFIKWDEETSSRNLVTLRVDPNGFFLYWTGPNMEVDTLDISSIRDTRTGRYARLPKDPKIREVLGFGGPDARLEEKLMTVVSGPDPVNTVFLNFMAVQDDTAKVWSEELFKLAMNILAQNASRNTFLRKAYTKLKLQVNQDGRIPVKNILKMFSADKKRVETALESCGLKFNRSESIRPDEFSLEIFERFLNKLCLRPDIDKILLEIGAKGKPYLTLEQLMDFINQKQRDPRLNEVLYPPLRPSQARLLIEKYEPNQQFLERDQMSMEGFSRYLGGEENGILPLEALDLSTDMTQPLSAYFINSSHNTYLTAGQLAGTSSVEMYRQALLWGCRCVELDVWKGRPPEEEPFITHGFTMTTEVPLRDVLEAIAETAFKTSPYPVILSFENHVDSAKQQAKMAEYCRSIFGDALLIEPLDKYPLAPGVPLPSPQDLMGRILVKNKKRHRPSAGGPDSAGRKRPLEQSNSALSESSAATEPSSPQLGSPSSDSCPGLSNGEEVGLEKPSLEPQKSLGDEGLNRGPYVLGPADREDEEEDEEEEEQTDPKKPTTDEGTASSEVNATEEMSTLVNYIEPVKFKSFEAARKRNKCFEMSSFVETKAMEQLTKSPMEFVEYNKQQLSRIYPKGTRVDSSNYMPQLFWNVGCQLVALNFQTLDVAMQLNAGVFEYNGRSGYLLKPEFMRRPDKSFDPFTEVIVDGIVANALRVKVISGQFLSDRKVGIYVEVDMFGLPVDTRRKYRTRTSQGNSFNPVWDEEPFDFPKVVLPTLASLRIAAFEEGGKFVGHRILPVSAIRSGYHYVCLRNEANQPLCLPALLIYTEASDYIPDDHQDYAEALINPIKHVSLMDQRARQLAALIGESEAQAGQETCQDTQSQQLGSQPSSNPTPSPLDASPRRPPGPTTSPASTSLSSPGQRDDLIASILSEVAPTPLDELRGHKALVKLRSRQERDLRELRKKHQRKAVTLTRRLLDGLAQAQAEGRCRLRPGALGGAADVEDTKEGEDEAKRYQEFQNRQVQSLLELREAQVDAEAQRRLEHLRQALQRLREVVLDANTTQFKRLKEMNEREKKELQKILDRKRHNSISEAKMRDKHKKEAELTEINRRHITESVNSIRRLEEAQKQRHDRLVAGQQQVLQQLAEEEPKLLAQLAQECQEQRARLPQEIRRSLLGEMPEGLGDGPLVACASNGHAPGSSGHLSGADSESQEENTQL
In words: Fluorescence-based biochemical high throughput dose response assay to identify inhibitors of phospholipase C isozymes (PLC-B3).

A further test deals with T2, Caspase-3 (Homo sapiens, UniProt P42574).
T2 sequence (P42574 whole entry): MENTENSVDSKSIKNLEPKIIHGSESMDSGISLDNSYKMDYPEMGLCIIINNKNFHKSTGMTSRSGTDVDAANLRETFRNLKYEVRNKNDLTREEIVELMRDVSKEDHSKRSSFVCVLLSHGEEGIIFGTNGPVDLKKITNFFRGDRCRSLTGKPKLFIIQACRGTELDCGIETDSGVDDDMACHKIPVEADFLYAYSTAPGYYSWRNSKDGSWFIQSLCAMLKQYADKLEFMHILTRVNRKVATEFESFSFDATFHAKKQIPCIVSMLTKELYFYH
Type of test: functional.

Test [2] addresses T3, Sentrin-specific protease 6 (Homo sapiens, UniProt Q9GZR1).
T3 sequence (Q9GZR1 whole entry): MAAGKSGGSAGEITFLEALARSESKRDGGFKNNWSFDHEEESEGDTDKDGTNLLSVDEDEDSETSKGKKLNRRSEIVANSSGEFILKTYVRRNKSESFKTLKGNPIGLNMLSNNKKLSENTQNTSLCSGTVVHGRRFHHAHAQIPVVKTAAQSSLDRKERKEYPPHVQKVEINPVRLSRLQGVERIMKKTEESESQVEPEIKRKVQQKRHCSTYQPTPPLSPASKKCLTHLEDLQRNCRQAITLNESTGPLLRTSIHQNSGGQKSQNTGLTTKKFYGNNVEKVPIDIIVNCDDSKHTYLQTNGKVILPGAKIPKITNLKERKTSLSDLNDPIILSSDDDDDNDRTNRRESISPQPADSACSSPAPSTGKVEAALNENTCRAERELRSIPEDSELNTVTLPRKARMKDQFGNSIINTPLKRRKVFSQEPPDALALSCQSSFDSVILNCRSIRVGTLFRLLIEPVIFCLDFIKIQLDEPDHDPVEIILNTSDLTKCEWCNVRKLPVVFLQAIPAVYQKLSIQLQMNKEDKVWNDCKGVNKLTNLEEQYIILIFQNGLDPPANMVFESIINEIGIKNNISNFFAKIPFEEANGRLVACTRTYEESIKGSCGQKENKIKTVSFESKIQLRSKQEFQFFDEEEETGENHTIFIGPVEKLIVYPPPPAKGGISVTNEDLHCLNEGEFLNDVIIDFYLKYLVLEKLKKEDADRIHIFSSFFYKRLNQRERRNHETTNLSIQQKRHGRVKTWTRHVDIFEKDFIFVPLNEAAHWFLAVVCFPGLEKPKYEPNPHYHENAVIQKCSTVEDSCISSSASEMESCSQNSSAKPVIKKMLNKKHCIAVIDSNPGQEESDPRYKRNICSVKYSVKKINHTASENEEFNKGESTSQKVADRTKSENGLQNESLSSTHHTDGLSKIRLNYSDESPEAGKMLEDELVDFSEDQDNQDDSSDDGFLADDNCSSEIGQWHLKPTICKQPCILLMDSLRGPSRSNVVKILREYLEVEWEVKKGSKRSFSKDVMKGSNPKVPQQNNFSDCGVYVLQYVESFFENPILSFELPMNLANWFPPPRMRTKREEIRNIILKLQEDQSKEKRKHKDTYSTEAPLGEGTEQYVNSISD
The test is classed as functional.

As to `O=C(NN1C(=O)CSC1=S)C(=O)NN1C(=O)CSC1=S`, the IC50 in test [1] was > 122 µM (inactive). In the case of `Cc1ccc2[nH]c(/C(C#N)=C/c3ccc(O)c(O)c3)nc2c1`, the values for the IC50 (at Caspase-3; in test [2]) were 28.1 µM (active) and 27.9 µM (active), respectively. The corresponding values for `CN(C)S(=O)(=O)Oc1cccc(C(=O)Nc2ccc(Cl)c(Cl)c2)c1` are 52.2 µM (active) and 13.6 µM (active). For the compound `O=C1NC(=S)S/C1=C\C=C\c1ccc([N+](=O)[O-])o1`, the IC50 in test [1] is > 122 µM (inactive).

By IC50 is commonly meant the concentration that gives 50% inhibition.
